In one experiment the test system is human tertiary bronchus. Kind of experiment: Short circuit current across human tertiary bronchus wall in modified Ussing chamber.
Experiment [1] deals with epithelial cells derived from the human tertiary bronchus. The experiment is described as follows: Short circuit current in cultured tertiary bronchial epithelial cell monolayers in modified Ussing chamber. Type of experiment: cell-based. An excerpt:
Functional effects of the secretin receptor were probed in epithelial cells derived from the human tertiary bronchus. In brief, tertiary bronchial epithelial were isolated by overnight protease digestion and then cultured until confluency on Snapwell (Costar) permeable supports. The supports were mounted in a modified Ussing chamber, and both luminal and basolateral membranes were bathed in oxygenated Krebs extracellular solution. The cells were voltage clamped to zero to allow changes in short circuit current in response to secretin to be measured. As previously described, 10 μM amiloride was initially added to the luminal membrane (FIG. 4, point a) followed by the addition of 100 nM secretin to the luminal membrane (FIG. 4, point b).

Experiment [2] concerns primary human, tertiary bronchial epithelial cells. The experiment is described as follows: Cl- efflux from primary human tertiary bronchial epithelial cells (MQAE fluorescence). Type of experiment: cell-based. Here is the method:
Ionic movement in tertiary bronchial epithelial cells was further characterised with the use of the Cl^− specific fluorescent probe MQAE (n-(ethoxycarbonylmethyl)-6-methoxyquinolinium bromide; Molecular Probes). In brief, primary human, tertiary bronchial epithelial cells were isolated as described above and cultured in a 96 well plate. On reaching confluency, cells were loaded overnight with 4 mM MQAE. Cells were washed in a chloride containing HEPES buffer, before passive Cl^− efflux was initiated by the addition of a Cl^− free buffer.
The experiment of example 3a above was repeated using a range of secretin concentrations from 1 to 1000 nM.

Another experiment deals with tertiary bronchial rings. Kind of experiment: Relaxation of carbachol precontracted human tertiary bronchial rings in organ bath. The procedure: The bronchorelaxant properties of secretin was examined in vitro, in the tertiary bronchus of non-diseased tissue. […] Tissues were precontracted with carbachol at the concentration being that which caused a contraction approximately 60-70% of the maximum, and a cumulative concentration-effect contractile curve (CEC) to secretin (0.01 μM to 3 μM) was constructed on each preparation.

Where [3] appears, read: 10 μM ATP or UTP added to apical membrane of the lung epithelium.

Each structure is given as a SMILES string.

As to `Nc1ncnc2c1ncn2[C@@H]1O[C@H](COP(=O)(O)OP(=O)(O)OP(=O)(O)O)[C@@H](O)[C@H]1O` [ATP], in the experiment on human tertiary bronchus (setting [3]), the “ionic movement (short circuit current)” value is recorded as “stimulate a similar ionic movement of similar magnitude”.

For `COc1ccc(Cl)cc1C(=O)NCCc1ccc(S(=O)(=O)NC(=O)NC2CCCCC2)cc1` [glibenclamide], the “suppression of secretin mediated ionic movement” value in experiment [1] (500 μM glibenclamide after 100 nM secretin) is on record as “failed to suppress secretin mediated ionic movement”.

As to `CC(C)C[C@H](NC(=O)CNC(=O)[C@H](CCC(N)=O)NC(=O)[C@H](CC(C)C)NC(=O)[C@H](CC(C)C)NC(=O)[C@H](CCCNC(=N)N)NC(=O)[C@H](CCC(N)=O)NC(=O)[C@H](CC(C)C)NC(=O)[C@H](CCCNC(=N)N)NC(=O)[C@H](C)NC(=O)CNC(=O)[C@H](CCC(=O)O)NC(=O)[C@H](CCCNC(=N)N)NC(=O)[C@H](CC(C)C)NC(=O)[C@H](CCCNC(=N)N)NC(=O)[C@H](CO)NC(=O)[C@H](CC(C)C)NC(=O)[C@H](CCC(=O)O)NC(=O)[C@H](CO)NC(=O)[C@@H](NC(=O)[C@H](Cc1ccccc1)NC(=O)[C@@H](NC(=O)CNC(=O)[C@H](CC(=O)O)NC(=O)[C@H](CO)NC(=O)[C@@H](N)Cc1c[nH]cn1)[C@@H](C)O)[C@@H](C)O)C(=O)N[C@H](C(N)=O)C(C)C` [secretin], the “ionic movement (short circuit current)” value is “stimulate ionic movement in a manner consistent with the movement of a negatively charged ion” in the experiment on human tertiary bronchus (3 μM human secretin added to luminal membrane after 10 μM amiloride, non-asthma donors) and “stimulated ionic movement in a manner consistent with the movement of a negatively charged ion” in experiment [1] (100 nM secretin added to luminal membrane after 10 μM amiloride). Also, the “Cl- efflux (changes in MQAE fluorescence)” value in experiment [2] (12.5 nM secretin) and in experiment [2] (100 nM secretin) was “stimulated Cl^− efflux” in each case. In experiment [2] (compared with Prostaglandin E2 (10 μM), secretin 1 to 1000 nM), the “Maximal secretin stimulated Cl- efflux” value is recorded as “of a similar magnitude to that observed to Prostaglandin E2”. Further, the “Log EC50 (M), Cl- efflux” value in experiment [2] (printed as negative Log EC50, mean ± s.e.mean, 2 to 6 independent experiments, cells from 6 donors, normalised to PGE2) is listed as -7.64±0.24 M. Also, in the experiment on tertiary bronchial rings (carbachol precontracted tertiary bronchial rings), the “mean pEC50, relaxation” value is 6.8±0.2. In the experiment on tertiary bronchial rings (secretin 0.01 μM to 3 μM, in 7 of the 8 preparations tested), the “relaxations of the carbachol-evoked tone” value was “concentration-dependent relaxations”. In addition, the “mean relaxation as % of the relaxation observed to isoprenaline (1 μM)” value in the experiment with tertiary bronchial rings (secretin 3 μM, n=7 preparations from 4 donors) was found to be 37±11%.

Consider `O=c1ccn([C@@H]2O[C@H](COP(=O)(O)OP(=O)(O)OP(=O)(O)O)[C@@H](O)[C@H]2O)c(=O)[nH]1` [UTP], for which the “ionic movement (short circuit current)” value in the experiment with human tertiary bronchus (setting [3]) is on record as “stimulate a similar ionic movement of similar magnitude”.

As for `O=C(O)c1cc([N+](=O)[O-])ccc1NCCCc1ccccc1` [NPPB, 5-nitro-2-(3-phenylpropyl-amino)benzoic acid], the “effect on 100 nM secretin mediated changes in fluorescence” value in experiment [2] (100 μM NPPB) is “abolished”.

(Values after patent publication US20040241154A1, “Secretin for the treatment of asthma” (priority 2001, published 2004).)
